How the values were obtained:
Format in all cases: in vivo
Amaranthus retroflexus [1] = experiment: Herbicidal action post-emergence (greenhouse pot trial); conditions: application rate 20 g/ha, scored visually after about 3 weeks vs untreated controls
In short: (§1)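 One-leaf-stage seedlings, 2–3 weeks old, are treated on their green parts with an aqueous emulsion or suspension of the test compound (WP or EC, 0.5% additive) using 600 L/ha of water at up to 80 g/ha. About 3 weeks on, percent kill is estimated visually versus untreated plants.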

Pharbitis purpurea [2] = experiment: as above; conditions: application rate 20 g/ha
In short: as §1

Abutilon theophrasti [3] = experiment: as above; conditions: application rate 20 g/ha, scored visually after about 3 weeks vs untreated controls
In short: as §1

Veronica persica [4] = experiment: as above; conditions: application rate 20 g/ha
In short: as §1

Matricaria inodora [5] = experiment: as above; conditions: application rate 20 g/ha, scored visually after about 3 weeks vs untreated controls
In short: as §1

Polygonum convolvulus = experiment: as above; conditions: application rate 20 g/ha, scored visually after about 3 weeks vs untreated controls
In short: as §1

Viola tricolor [6] = experiment: as above; conditions: application rate 20 g/ha
In short: as §1

Glycine max = experiment: Crop compatibility pre-emergence (greenhouse pot trial); conditions: application rate 80 g/ha, effect vs untreated controls
Text: (§2) Seeds of mono- and dicotyledonous weeds and crop plants were laid out in plastic or organic plant pots and covered with soil. The compounds of the invention formulated in the form of wettable powders (WP) or emulsion concentrates (EC) were then applied to the surface of the covering soil as an aqueous suspension or emulsion with addition of 0.5% additive at a water application rate equivalent to 600 L/ha. After the treatment, the pots were placed in a greenhouse and kept under good growth conditions for the test plants. After about 3 weeks, the efficacy of the preparations was scored visually as a percentage by comparison with untreated controls. For example, 100% efficacy=plants have died, 0% efficacy=like control plants.
(§3) Crop compatibilities were also scored correspondingly.
(§4) The effects observed are reported here on selected crop plants by comparison with the untreated controls (values in %).

Zea mays [7] = experiment: as above; conditions: application rate 80 g/ha, effect vs untreated controls
Text: as §2, §3, §4

Triticum aestivum = experiment: Crop compatibility post-emergence (greenhouse pot trial)
In short: (§5)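 Compatibility is expressed as visually scored percent injury, where 0% means no difference from untreated controls and 100% means dead plants, assessed about 3 weeks after a foliar spray at 600 L/ha with 0.5% additive on one-leaf-stage pot plants in sandy loam.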

Oryza sativa = experiment: as above
In short: as §5

Zea mays [8] = experiment: as above; conditions: application rate 20 g/ha
In short: as §5

Amaranthus retroflexus [9] = experiment: Herbicidal action pre-emergence (greenhouse pot trial); conditions: scored after about 3 weeks
Text: as §2, with “control plants. Tables B1 to B16 below show the efficacies of selected compounds of the general formula (I) according to tables I.1 to I.60 on various harmful plants and an application rate corresponding to 320 g/ha or lower that were obtained by the aforementioned trial method.” for “control plants.”

Abutilon theophrasti [10] = experiment: as above; conditions: scored after about 3 weeks
Text: as §2, with “control plants. Tables B1 to B16 below show the efficacies of selected compounds of the general formula (I) according to tables I.1 to I.60 on various harmful plants and an application rate corresponding to 320 g/ha or lower that were obtained by the aforementioned trial method.” for “control plants.”

Veronica persica [11] = experiment: as above; conditions: application rate 80 g/ha
Text: as §2, with “control plants. Tables B1 to B16 below show the efficacies of selected compounds of the general formula (I) according to tables I.1 to I.60 on various harmful plants and an application rate corresponding to 320 g/ha or lower that were obtained by the aforementioned trial method.” for “control plants.”

Matricaria inodora [12] = experiment: as above; conditions: scored after about 3 weeks
Text: as §2, with “control plants. Tables B1 to B16 below show the efficacies of selected compounds of the general formula (I) according to tables I.1 to I.60 on various harmful plants and an application rate corresponding to 320 g/ha or lower that were obtained by the aforementioned trial method.” for “control plants.”

Viola tricolor [13] = experiment: as above; conditions: scored after about 3 weeks
Text: as §2, with “control plants. Tables B1 to B16 below show the efficacies of selected compounds of the general formula (I) according to tables I.1 to I.60 on various harmful plants and an application rate corresponding to 320 g/ha or lower that were obtained by the aforementioned trial method.” for “control plants.”

Alopecurus myosuroides = experiment: Herbicidal action post-emergence (greenhouse pot trial); conditions: application rate 20 g/ha, scored visually after about 3 weeks vs untreated controls
In short: as §1

Stellaria media = experiment: as above; conditions: application rate 20 g/ha, scored visually after about 3 weeks vs untreated controls
In short: as §1

Digitaria sanguinalis = experiment: as above; conditions: application rate 20 g/ha
In short: as §1

Echinochloa crus-galli [14] = experiment: as above; conditions: application rate 20 g/ha, scored visually after about 3 weeks vs untreated controls
In short: as §1

Setaria viridis [15] = experiment: as above; conditions: application rate 20 g/ha, scored visually after about 3 weeks vs untreated controls
In short: as §1

Pharbitis purpurea [16] = experiment: Herbicidal action pre-emergence (greenhouse pot trial); conditions: application rate 320 g/ha
Text: as §2, with “control plants. Tables B1 to B16 below show the efficacies of selected compounds of the general formula (I) according to tables I.1 to I.60 on various harmful plants and an application rate corresponding to 320 g/ha or lower that were obtained by the aforementioned trial method.” for “control plants.”

Echinochloa crus-galli [17] = experiment: as above; conditions: application rate 320 g/ha, scored after about 3 weeks
Text: as §2, with “control plants. Tables B1 to B16 below show the efficacies of selected compounds of the general formula (I) according to tables I.1 to I.60 on various harmful plants and an application rate corresponding to 320 g/ha or lower that were obtained by the aforementioned trial method.” for “control plants.”

Setaria viridis [18] = experiment: as above; conditions: application rate 320 g/ha, scored after about 3 weeks
Text: as §2, with “control plants. Tables B1 to B16 below show the efficacies of selected compounds of the general formula (I) according to tables I.1 to I.60 on various harmful plants and an application rate corresponding to 320 g/ha or lower that were obtained by the aforementioned trial method.” for “control plants.”

CC(Sc1cc(-n2c(=O)cc(C(F)(F)F)n(C)c2=O)c(F)cc1Cl)C(=O)OCC1CCCCO1 (centres unmarked) [I.1-91]
10%: Triticum aestivum (Efficacy in %) (Triticum aestivum; application rate 5 g/ha) | Oryza sativa (Efficacy in %) (Oryza sativa; application rate 20 g/ha)
0%: Zea mays (Efficacy in %) (Zea mays [7])
20%: Glycine max (Efficacy in %) (Glycine max) | Zea mays (Efficacy in %) (Zea mays [8])
100%: Amaranthus retroflexus (Efficacy in %) (Amaranthus retroflexus [1]) | Pharbitis purpurea (Efficacy in %) (Pharbitis purpurea [2]) | Abutilon theophrasti (Efficacy in %) (Abutilon theophrasti [3]) | Veronica persica (Efficacy in %) (Veronica persica [4]) | Matricaria inodora (Efficacy in %) (Matricaria inodora [5]) | Polygonum convolvulus (Efficacy in %) (Polygonum convolvulus) | Viola tricolor (Efficacy in %) (Viola tricolor [6]) | Amaranthus retroflexus (Efficacy in %) (Amaranthus retroflexus [9]; application rate 80 g/ha) | Abutilon theophrasti (Efficacy in %) (Abutilon theophrasti [10]; application rate 80 g/ha) | Veronica persica (Efficacy in %) (Veronica persica [11]) | Matricaria inodora (Efficacy in %) (Matricaria inodora [12]; application rate 80 g/ha) | Viola tricolor (Efficacy in %) (Viola tricolor [13]; application rate 80 g/ha)

Cn1c(C(F)(F)F)cc(=O)n(-c2cc(SCC(C)(C)C(=O)OC3CCOC3)c(Cl)cc2F)c1=O (centres unmarked) [I.48-121]
100%: Amaranthus retroflexus (Efficacy in %) (Amaranthus retroflexus [1]) | Pharbitis purpurea (Efficacy in %) (Pharbitis purpurea [2]) | Abutilon theophrasti (Efficacy in %) (Abutilon theophrasti [3]) | Veronica persica (Efficacy in %) (Veronica persica [4]) | Matricaria inodora (Efficacy in %) (Matricaria inodora [5]) | Polygonum convolvulus (Efficacy in %) (Polygonum convolvulus) | Viola tricolor (Efficacy in %) (Viola tricolor [6])
80%: Alopecurus myosuroides (Efficacy in %) (Alopecurus myosuroides) | Stellaria media (Efficacy in %) (Stellaria media) | Digitaria sanguinalis (Efficacy in %) (Digitaria sanguinalis)
0%: Triticum aestivum (Efficacy in %) (Triticum aestivum; application rate 20 g/ha) | Oryza sativa (Efficacy in %) (Oryza sativa; application rate 20 g/ha)

COC(C)COC(=O)C(C)Sc1cc(-n2c(=O)cc(C(F)(F)F)n(C)c2=O)c(F)cc1Cl (centres unmarked) [I.1-51]
100%: Amaranthus retroflexus (Efficacy in %) (Amaranthus retroflexus [1]) | Pharbitis purpurea (Efficacy in %) (Pharbitis purpurea [2]) | Abutilon theophrasti (Efficacy in %) (Abutilon theophrasti [3]) | Echinochloa crus-galli (Efficacy in %) (Echinochloa crus-galli [14]) | Digitaria sanguinalis (Efficacy in %) (Digitaria sanguinalis) | Veronica persica (Efficacy in %) (Veronica persica [4]) | Matricaria inodora (Efficacy in %) (Matricaria inodora [5]) | Polygonum convolvulus (Efficacy in %) (Polygonum convolvulus) | Viola tricolor (Efficacy in %) (Viola tricolor [6]) | Setaria viridis (Efficacy in %) (Setaria viridis [15])
20%: Triticum aestivum (Efficacy in %) (Triticum aestivum; application rate 20 g/ha)
80%: Alopecurus myosuroides (Efficacy in %) (Alopecurus myosuroides) | Stellaria media (Efficacy in %) (Stellaria media)

COCCOCCOC(=O)C(C)Sc1cc(-n2c(=O)cc(C(F)(F)F)n(C)c2=O)c(F)cc1Cl (centres unmarked) [I.1-23]
0%: Glycine max (Efficacy in %) (Glycine max)
100%: Amaranthus retroflexus (Efficacy in %) (Amaranthus retroflexus [9]; application rate 320 g/ha) | Pharbitis purpurea (Efficacy in %) (Pharbitis purpurea [16]) | Abutilon theophrasti (Efficacy in %) (Abutilon theophrasti [10]; application rate 320 g/ha) | Echinochloa crus-galli (Efficacy in %) (Echinochloa crus-galli [17]) | Matricaria inodora (Efficacy in %) (Matricaria inodora [12]; application rate 320 g/ha) | Viola tricolor (Efficacy in %) (Viola tricolor [13]; application rate 320 g/ha) | Setaria viridis (Efficacy in %) (Setaria viridis [18])
10%: Zea mays (Efficacy in %) (Zea mays [7]) | Oryza sativa (Efficacy in %) (Oryza sativa; application rate 5 g/ha)

Cn1c(C(F)(F)F)cc(=O)n(-c2cc(SCC(C)(C)C(=O)OCC3CCOCC3)c(Cl)cc2F)c1=O [I.48-93]
100%: Amaranthus retroflexus (Efficacy in %) (Amaranthus retroflexus [1]) | Pharbitis purpurea (Efficacy in %) (Pharbitis purpurea [2]) | Stellaria media (Efficacy in %) (Stellaria media) | Abutilon theophrasti (Efficacy in %) (Abutilon theophrasti [3]) | Veronica persica (Efficacy in %) (Veronica persica [4]) | Viola tricolor (Efficacy in %) (Viola tricolor [6])
80%: Alopecurus myosuroides (Efficacy in %) (Alopecurus myosuroides) | Polygonum convolvulus (Efficacy in %) (Polygonum convolvulus)
0%: Triticum aestivum (Efficacy in %) (Triticum aestivum; application rate 20 g/ha) | Oryza sativa (Efficacy in %) (Oryza sativa; application rate 20 g/ha)

CCC(Sc1cc(-n2c(=O)cc(C(F)(F)F)n(C)c2=O)c(F)cc1Cl)C(=O)OCC1CCCOC1 (centres unmarked) [I.2-92, Tetrahydro-2H-pyran-3-ylmethyl 2-({2-chloro-4-fluoro-5-[3-methyl-2,6-dioxo-4-(trifluoromethyl)-3,6-dihydropyrimidin-1(2H)-yl]phenyl}sulfanyl)butanoate]
20%: Triticum aestivum (Efficacy in %) (Triticum aestivum; application rate 5 g/ha)
100%: Amaranthus retroflexus (Efficacy in %) (Amaranthus retroflexus [1]) | Pharbitis purpurea (Efficacy in %) (Pharbitis purpurea [2]) | Stellaria media (Efficacy in %) (Stellaria media) | Abutilon theophrasti (Efficacy in %) (Abutilon theophrasti [3]) | Echinochloa crus-galli (Efficacy in %) (Echinochloa crus-galli [14]) | Digitaria sanguinalis (Efficacy in %) (Digitaria sanguinalis) | Veronica persica (Efficacy in %) (Veronica persica [4]) | Matricaria inodora (Efficacy in %) (Matricaria inodora [5]) | Polygonum convolvulus (Efficacy in %) (Polygonum convolvulus) | Viola tricolor (Efficacy in %) (Viola tricolor [6]) | Setaria viridis (Efficacy in %) (Setaria viridis [15])
80%: Alopecurus myosuroides (Efficacy in %) (Alopecurus myosuroides)

CCC(Sc1cc(-n2c(=O)cc(C(F)(F)F)n(C)c2=O)c(F)cc1Cl)C(=O)OCC1CCCCO1 (centres unmarked) [I.2-91, Tetrahydro-2H-pyran-2-ylmethyl 2-({2-chloro-4-fluoro-5-[3-methyl-2,6-dioxo-4-(trifluoromethyl)-3,6-dihydropyrimidin-1(2H)-yl]phenyl}sulfanyl)butanoate]
90%: Alopecurus myosuroides (Efficacy in %) (Alopecurus myosuroides)
80%: Stellaria media (Efficacy in %) (Stellaria media)
20%: Triticum aestivum (Efficacy in %) (Triticum aestivum; application rate 5 g/ha)
100%: Amaranthus retroflexus (Efficacy in %) (Amaranthus retroflexus [1]) | Pharbitis purpurea (Efficacy in %) (Pharbitis purpurea [2]) | Abutilon theophrasti (Efficacy in %) (Abutilon theophrasti [3]) | Echinochloa crus-galli (Efficacy in %) (Echinochloa crus-galli [14]) | Veronica persica (Efficacy in %) (Veronica persica [4]) | Matricaria inodora (Efficacy in %) (Matricaria inodora [5]) | Polygonum convolvulus (Efficacy in %) (Polygonum convolvulus) | Viola tricolor (Efficacy in %) (Viola tricolor [6]) | Setaria viridis (Efficacy in %) (Setaria viridis [15])

CC(Sc1cc(-n2c(=O)cc(C(F)(F)F)n(C)c2=O)c(F)cc1Cl)C(=O)OC1CCSCC1 (centres unmarked) [I.1-132]
90%: Viola tricolor (Efficacy in %) (Viola tricolor [13]; application rate 80 g/ha)
0%: Zea mays (Efficacy in %) (Zea mays [7]) | Oryza sativa (Efficacy in %) (Oryza sativa; application rate 20 g/ha)
10%: Triticum aestivum (Efficacy in %) (Triticum aestivum; application rate 5 g/ha)
80%: Stellaria media (Efficacy in %) (Stellaria media)
100%: Amaranthus retroflexus (Efficacy in %) (Amaranthus retroflexus [1]) | Pharbitis purpurea (Efficacy in %) (Pharbitis purpurea [2]) | Abutilon theophrasti (Efficacy in %) (Abutilon theophrasti [3]) | Veronica persica (Efficacy in %) (Veronica persica [4]) | Matricaria inodora (Efficacy in %) (Matricaria inodora [5]) | Polygonum convolvulus (Efficacy in %) (Polygonum convolvulus) | Viola tricolor (Efficacy in %) (Viola tricolor [6]) | Amaranthus retroflexus (Efficacy in %) (Amaranthus retroflexus [9]; application rate 80 g/ha) | Abutilon theophrasti (Efficacy in %) (Abutilon theophrasti [10]; application rate 80 g/ha) | Matricaria inodora (Efficacy in %) (Matricaria inodora [12]; application rate 80 g/ha)
20%: Glycine max (Efficacy in %) (Glycine max) | Zea mays (Efficacy in %) (Zea mays [8])
